Results: publication PMC3150614 (Journal of medicinal chemistry, 2011)

What was measured:
[1] = target: T1, Plasmodium falciparum arginase (PFA) (Plasmodium falciparum, UniProt Q8I384); format: biochemical; conditions: racemic mixtures
T1 sequence (Q8I384 1-411): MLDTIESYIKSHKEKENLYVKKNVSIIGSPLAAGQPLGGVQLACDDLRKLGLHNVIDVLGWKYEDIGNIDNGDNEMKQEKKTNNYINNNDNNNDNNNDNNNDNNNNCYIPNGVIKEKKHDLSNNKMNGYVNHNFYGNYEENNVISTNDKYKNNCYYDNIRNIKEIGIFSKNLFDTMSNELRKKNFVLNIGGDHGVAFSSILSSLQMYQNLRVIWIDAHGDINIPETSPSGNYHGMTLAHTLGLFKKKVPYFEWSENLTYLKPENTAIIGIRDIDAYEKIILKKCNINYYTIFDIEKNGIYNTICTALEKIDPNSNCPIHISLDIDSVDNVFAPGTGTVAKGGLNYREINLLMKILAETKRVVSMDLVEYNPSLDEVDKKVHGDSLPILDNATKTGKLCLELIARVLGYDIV

[2] = target: T2, human arginase I (HAI) (Homo sapiens, UniProt P05089); test: Surface plasmon resonance binding to immobilized HAI; conditions: based on Kd, racemic mixtures
T2 sequence (P05089 1-322): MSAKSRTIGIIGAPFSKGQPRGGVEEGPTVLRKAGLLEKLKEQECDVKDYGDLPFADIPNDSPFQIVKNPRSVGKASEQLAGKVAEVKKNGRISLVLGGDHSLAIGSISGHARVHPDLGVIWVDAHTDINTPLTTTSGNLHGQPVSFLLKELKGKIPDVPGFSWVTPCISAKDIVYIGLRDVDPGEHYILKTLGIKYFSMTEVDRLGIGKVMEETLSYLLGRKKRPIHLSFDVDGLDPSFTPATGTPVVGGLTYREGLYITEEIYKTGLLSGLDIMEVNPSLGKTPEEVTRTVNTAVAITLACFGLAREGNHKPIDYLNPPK

SMILES	fold weaker inhibitory potency against PFA than ABH, based on Ki [1] [fold]	fold less tight binding to HAI compared with ABH [2] [fold]
NC(CCCCB(O)O)(C(=O)O)C(F)F (stereo not shown) [FABH, 2-Amino-6-borono-2-(difluoromethyl)hexanoic acid]	200	1889
CC(N)(CCCCB(O)O)C(=O)O (stereo not shown) [MABH, 2-Amino-6-borono-2-methylhexanoic acid]	26	49
